ChEMBL document CHEMBL6078695, “Design, synthesis, and biological evaluations of 5-aryl-pyrazole-3-carboxamide derivatives as selective CB2 receptor agonists for the treatment of colitis” (Eur J Med Chem, 2025)
Activity calls are given as the source filed them. The calls are words filed in the database; no cut-off is given here.

Each molecule was assayed against T1, Cannabinoid receptor 2 (Homo sapiens, UniProt P34972) (assay: Antagonist activity at human CB2 receptor expressed in CHO-K1 cells co-transfected with human Galpha16 assessed as intracellular calcium flux). Conditions: not given.
T1 sequence (P34972 whole entry): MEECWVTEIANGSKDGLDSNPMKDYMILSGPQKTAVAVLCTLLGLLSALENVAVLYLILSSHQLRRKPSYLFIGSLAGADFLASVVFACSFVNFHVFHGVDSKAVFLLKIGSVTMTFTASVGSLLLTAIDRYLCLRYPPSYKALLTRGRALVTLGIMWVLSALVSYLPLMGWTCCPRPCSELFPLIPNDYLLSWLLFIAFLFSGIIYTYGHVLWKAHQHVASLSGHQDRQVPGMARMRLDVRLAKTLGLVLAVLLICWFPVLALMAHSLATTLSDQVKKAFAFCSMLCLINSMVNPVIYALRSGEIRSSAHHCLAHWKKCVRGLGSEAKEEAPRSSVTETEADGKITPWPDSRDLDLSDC
Format: functional, cell-based

With `CCCCn1nc(C(=O)NC(C)(C)CO)cc1-c1cncs1` as the molecule, how does the IC50 read?
The IC50 was over 100 µM.

For `CCCCCn1nc(C(=O)NC(C)(C)CO)cc1-c1cc(Cl)cs1`, which IC50 is on record?
Its IC50 is 0.0346 µM.

With `CC(C)(CO)NC(=O)c1cc(-c2cccs2)n(-c2ccc(F)cc2)n1` as the molecule, how does the IC50 read?
Its IC50 is over 100 µM.

With `CCCCCn1nc(C(=O)NC(C)(C)CO)cc1-c1ccnn1C` as the molecule, how does the IC50 read?
The IC50 was over 100 µM.

How did the IC50 turn out when `CCCCCn1nc(C(=O)NC(C)(C)CO)cc1-c1nccn1C` was run?
The IC50 was over 100 µM.

With `CCCCCn1nc(C(=O)NC(C)(C)CO)cc1-c1sccc1Cl` as the molecule, how does the IC50 read?
The IC50 was over 100 µM.

`CC(C)(CO)NC(=O)c1cc(-c2cccs2)n(-c2ccc(Cl)cc2)n1` was tested. Which IC50 did it give?
Its IC50 is over 100 µM.

`CCCCCn1nc(C(=O)NC(C)(C)CO)cc1-c1ccc(C)s1` was tested. Which IC50 did it give?
The IC50 was 0.0282 µM.

How did the IC50 turn out when `CCCCCn1nc(C(=O)NC(C)(C)CO)cc1-c1sccc1C` was run?
Its IC50 is over 100 µM.

The molecules below were run against T1, Cannabinoid receptor 2 (assay: Agonist activity at human CB2 receptor expressed in CHO-K1 cells co-transfected with human Galpha16 assessed as intracellular calcium flux at 10 uM relative to control). Conditions: filed as agonist.
Format: functional, cell-based

With `CCCCCn1nc(C(=O)NC(C)(C)CO)cc1-c1cccs1` as the molecule, how does the Emax read?
The Emax was 95%.

`CCCCCn1nc(C(=O)NC(C)(C)CO)cc1-c1cccn1C` was tested. Which Emax did it give?
The Emax was 90%.

`CC(C)(CO)NC(=O)c1cc(-c2cccs2)n(-c2ccc(F)cc2)n1` was tested. Which Emax did it give?
Its Emax is 48%.

Which Emax does the source give for `CCCCCn1nc(C(=O)NC(C)(C)CO)cc1-c1sccc1Cl` here?
Its Emax is 76%.

Which Emax does the source give for `CC(C)(CO)NC(=O)c1cc(-c2cccs2)n(-c2ccc(Cl)cc2)n1` here?
Its Emax is 82%.

`CCCCCn1nc(C(=O)NC(C)(C)CO)cc1-c1sccc1C` was tested. Which Emax did it give?
Its Emax is 85%.

These molecules were tested against T2, Cannabinoid receptor 1 (Homo sapiens, UniProt P21554) (assay: Partial agonist activity at human CB1 receptor expressed in CHO-K1 cells co-transfected with human Galpha16 assessed as intracellular calcium flux at 10 uM relative to control). Conditions: filed as partial agonist.
T2 sequence (P21554 whole entry): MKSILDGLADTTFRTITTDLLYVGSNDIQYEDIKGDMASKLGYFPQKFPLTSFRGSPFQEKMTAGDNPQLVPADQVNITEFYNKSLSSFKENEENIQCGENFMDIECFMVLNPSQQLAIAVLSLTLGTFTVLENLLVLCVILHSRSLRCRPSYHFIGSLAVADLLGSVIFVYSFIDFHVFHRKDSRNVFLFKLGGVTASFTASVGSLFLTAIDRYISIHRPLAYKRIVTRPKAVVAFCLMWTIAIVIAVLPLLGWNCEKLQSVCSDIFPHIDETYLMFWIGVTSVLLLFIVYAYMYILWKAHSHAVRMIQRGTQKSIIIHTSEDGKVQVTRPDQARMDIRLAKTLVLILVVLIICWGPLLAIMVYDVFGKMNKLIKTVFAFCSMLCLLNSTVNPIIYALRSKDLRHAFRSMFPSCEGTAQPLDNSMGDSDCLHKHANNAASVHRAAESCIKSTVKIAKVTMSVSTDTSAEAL
Format: functional, cell-based

For `CCCCCn1nc(C(=O)NC(C)(C)CO)cc1-c1ccco1`, which Emax is on record?
Its Emax is 80%.

Each molecule was assayed against T2, Cannabinoid receptor 1 (assay: Agonist activity at human CB1 receptor expressed in CHO-K1 cells co-transfected with human Galpha16 assessed as intracellular calcium flux). Conditions: not given.
Format: functional, cell-based

Which EC50 does the source give for `CCCCCn1nc(-c2ccco2)cc1C(=O)NC(C)(C)CO` here?
The EC50 was over 100 µM.

With `CCCCCn1nc(C(=O)NC(C)(C)CO)cc1-c1cccs1` as the molecule, how does the EC50 read?
The EC50 was 0.593 µM.

`CCCCCn1nc(C(=O)NC(C)(C)CO)cc1-c1cccn1C` was tested. Which EC50 did it give?
Its EC50 is over 100 µM.

With `CCCCCn1nc(-c2cccs2)cc1C(=O)NC(C)(C)CO` as the molecule, how does the EC50 read?
Its EC50 is over 100 µM.

For `CCCCCn1nc(-c2cccn2C)cc1C(=O)NC(C)(C)CO`, which EC50 is on record?
Its EC50 is over 100 µM.

With `CCCCn1nc(C(=O)NC(C)(C)CO)cc1-c1cncs1` as the molecule, how does the EC50 read?
The EC50 was over 100 µM.

Which EC50 does the source give for `CCCCCn1nc(C(=O)NC(C)(C)CO)cc1-c1cc(Cl)cs1` here?
The EC50 was over 100 µM.

With `CC(C)(CO)NC(=O)c1cc(-c2cccs2)n(-c2ccc(F)cc2)n1` as the molecule, how does the EC50 read?
The EC50 was over 100 µM.

`CCCCCn1nc(C(=O)NC(C)(C)CO)cc1-c1ccnn1C` was tested. Which EC50 did it give?
Its EC50 is over 100 µM.

`CCCCCn1nc(C(=O)NC(C)(C)CO)cc1-c1nccn1C` was tested. Which EC50 did it give?
The EC50 was over 100 µM.

How did the EC50 turn out when `CCCCCn1nc(C(=O)NC(C)(C)CO)cc1-c1sccc1Cl` was run?
The EC50 was over 100 µM.

Which EC50 does the source give for `CC(C)(CO)NC(=O)c1cc(-c2cccs2)n(-c2ccc(Cl)cc2)n1` here?
The EC50 was over 100 µM.

`CCCCCn1nc(C(=O)NC(C)(C)CO)cc1-c1ccc(C)s1` was tested. Which EC50 did it give?
Its EC50 is over 100 µM.

Which EC50 does the source give for `CCCCCn1nc(-c2cccn2CC)cc1C(=O)NC(C)(C)CO` here?
Its EC50 is over 100 µM.

With `CCCCCn1nc(C(=O)NC(C)(C)CO)cc1-c1sccc1C` as the molecule, how does the EC50 read?
The EC50 was 0.424 µM.

The molecules below were run against T1, Cannabinoid receptor 2 (assay: Partial agonist activity at human CB2 receptor expressed in CHO-K1 cells co-transfected with human Galpha16 assessed as intracellular calcium flux at 10 uM). Conditions: filed as partial agonist.
Format: functional, cell-based

With `CC(C)(CO)NC(=O)c1cc(-c2cccs2)n(-c2ccc(F)cc2)n1` as the molecule, how does the Activity read?
Its Activity is “Weak_effect”.

Which Activity does the source give for `CC(C)(CO)NC(=O)c1cc(-c2cccs2)n(-c2ccc(Cl)cc2)n1` here?
The Activity was “Weak_effect”.

These molecules were tested against T1, Cannabinoid receptor 2 (assay: Partial agonist activity at human CB2 receptor expressed in CHO-K1 cells co-transfected with human Galpha16 assessed as intracellular calcium flux at 10 uM relative to control). Conditions: filed as partial agonist.
Format: functional, cell-based

With `CCCCCn1nc(C(=O)NC(C)(C)CO)cc1-c1ccco1` as the molecule, how does the Emax read?
The Emax was 50%.

The molecules below were run against T2, Cannabinoid receptor 1 (assay: Partial agonist activity at human CB1 receptor expressed in CHO-K1 cells co-transfected with human Galpha16 assessed as intracellular calcium flux). Conditions: not given.
Format: functional, cell-based

For `CCCCCn1nc(C(=O)NC(C)(C)CO)cc1-c1ccco1`, which EC50 is on record?
Its EC50 is 0.957 µM.

The molecules below were run against T1, Cannabinoid receptor 2 (assay: Agonist activity at human CB2 receptor expressed in CHO-K1 cells co-transfected with human Galpha16 assessed as intracellular calcium flux at 10 uM). Conditions: not given.
Format: functional, cell-based

How did the Activity turn out when `CCCCn1nc(C(=O)NC(C)(C)CO)cc1-c1cncs1` was run?
Its Activity is “inactive”.

What follows are molecules tested against T1, Cannabinoid receptor 2 (assay: Agonist activity at human CB2 receptor expressed in CHO-K1 cells co-transfected with human Galpha16 assessed as intracellular calcium flux). Conditions: not given.
Format: functional, cell-based

For `CCCCCn1nc(-c2ccco2)cc1C(=O)NC(C)(C)CO`, which EC50 is on record?
Its EC50 is over 100 µM.

With `CCCCCn1nc(C(=O)NC(C)(C)CO)cc1-c1cccs1` as the molecule, how does the EC50 read?
The EC50 was 0.0088 µM.

With `CCCCCn1nc(C(=O)NC(C)(C)CO)cc1-c1cccn1C` as the molecule, how does the EC50 read?
Its EC50 is 0.0479 µM.

For `CCCCCn1nc(-c2cccs2)cc1C(=O)NC(C)(C)CO`, which EC50 is on record?
Its EC50 is over 100 µM.

For `CCCCCn1nc(-c2cccn2C)cc1C(=O)NC(C)(C)CO`, which EC50 is on record?
The EC50 was over 100 µM.

For `CCCCn1nc(C(=O)NC(C)(C)CO)cc1-c1cncs1`, which EC50 is on record?
Its EC50 is over 100 µM.

With `CCCCCn1nc(C(=O)NC(C)(C)CO)cc1-c1cc(Cl)cs1` as the molecule, how does the EC50 read?
The EC50 was over 100 µM.

How did the EC50 turn out when `CC(C)(CO)NC(=O)c1cc(-c2cccs2)n(-c2ccc(F)cc2)n1` was run?
Its EC50 is 0.852 µM.

`CCCCCn1nc(C(=O)NC(C)(C)CO)cc1-c1ccnn1C` was tested. Which EC50 did it give?
The EC50 was over 100 µM.

`CCCCCn1nc(C(=O)NC(C)(C)CO)cc1-c1nccn1C` was tested. Which EC50 did it give?
The EC50 was over 100 µM.

For `CCCCCn1nc(C(=O)NC(C)(C)CO)cc1-c1sccc1Cl`, which EC50 is on record?
The EC50 was 0.0215 µM.

With `CC(C)(CO)NC(=O)c1cc(-c2cccs2)n(-c2ccc(Cl)cc2)n1` as the molecule, how does the EC50 read?
The EC50 was 0.788 µM.

For `CCCCCn1nc(C(=O)NC(C)(C)CO)cc1-c1ccc(C)s1`, which EC50 is on record?
Its EC50 is over 100 µM.

How did the EC50 turn out when `CCCCCn1nc(-c2cccn2CC)cc1C(=O)NC(C)(C)CO` was run?
Its EC50 is over 100 µM.

For `CCCCCn1nc(C(=O)NC(C)(C)CO)cc1-c1sccc1C`, which EC50 is on record?
The EC50 was 0.274 µM.

What follows are molecules tested against T2, Cannabinoid receptor 1 (assay: Antagonist activity at human CB1 receptor expressed in CHO-K1 cells co-transfected with human Galpha16 assessed as intracellular calcium flux). Conditions: not given.
Format: functional, cell-based

`CCCCCn1nc(-c2ccco2)cc1C(=O)NC(C)(C)CO` was tested. Which IC50 did it give?
Its IC50 is over 100 µM.

For `CCCCCn1nc(C(=O)NC(C)(C)CO)cc1-c1cccs1`, which IC50 is on record?
Its IC50 is over 100 µM.

For `CCCCCn1nc(C(=O)NC(C)(C)CO)cc1-c1cccn1C`, which IC50 is on record?
Its IC50 is over 100 µM.

How did the IC50 turn out when `CCCCCn1nc(-c2cccs2)cc1C(=O)NC(C)(C)CO` was run?
The IC50 was over 100 µM.

How did the IC50 turn out when `CCCCCn1nc(-c2cccn2C)cc1C(=O)NC(C)(C)CO` was run?
Its IC50 is over 100 µM.

For `CCCCn1nc(C(=O)NC(C)(C)CO)cc1-c1cncs1`, which IC50 is on record?
Its IC50 is over 100 µM.

Which IC50 does the source give for `CCCCCn1nc(C(=O)NC(C)(C)CO)cc1-c1cc(Cl)cs1` here?
Its IC50 is over 100 µM.

With `CC(C)(CO)NC(=O)c1cc(-c2cccs2)n(-c2ccc(F)cc2)n1` as the molecule, how does the IC50 read?
Its IC50 is over 100 µM.

Which IC50 does the source give for `CCCCCn1nc(C(=O)NC(C)(C)CO)cc1-c1ccnn1C` here?
Its IC50 is over 100 µM.

For `CCCCCn1nc(C(=O)NC(C)(C)CO)cc1-c1nccn1C`, which IC50 is on record?
The IC50 was over 100 µM.

For `CCCCCn1nc(C(=O)NC(C)(C)CO)cc1-c1ccco1`, which IC50 is on record?
Its IC50 is over 100 µM.

With `CCCCCn1nc(C(=O)NC(C)(C)CO)cc1-c1sccc1Cl` as the molecule, how does the IC50 read?
Its IC50 is over 100 µM.

With `CC(C)(CO)NC(=O)c1cc(-c2cccs2)n(-c2ccc(Cl)cc2)n1` as the molecule, how does the IC50 read?
Its IC50 is over 100 µM.

With `CCCCCn1nc(C(=O)NC(C)(C)CO)cc1-c1ccc(C)s1` as the molecule, how does the IC50 read?
Its IC50 is over 100 µM.

`CCCCCn1nc(-c2cccn2CC)cc1C(=O)NC(C)(C)CO` was tested. Which IC50 did it give?
Its IC50 is over 100 µM.

For `CCCCCn1nc(C(=O)NC(C)(C)CO)cc1-c1sccc1C`, which IC50 is on record?
Its IC50 is over 100 µM.

The molecules below were run against T1, Cannabinoid receptor 2 (assay: Partial agonist activity at human CB2 receptor expressed in CHO-K1 cells co-transfected with human Galpha16 assessed as intracellular calcium flux). Conditions: not given.
Format: functional, cell-based

With `CCCCCn1nc(C(=O)NC(C)(C)CO)cc1-c1ccco1` as the molecule, how does the EC50 read?
Its EC50 is 0.056 µM.

Each molecule was assayed against T2, Cannabinoid receptor 1 (assay: Agonist activity at human CB1 receptor expressed in CHO-K1 cells co-transfected with human Galpha16 assessed as intracellular calcium flux at 10 uM relative to control). Conditions: not given.
Format: functional, cell-based

Which Emax does the source give for `CCCCCn1nc(C(=O)NC(C)(C)CO)cc1-c1sccc1C` here?
Its Emax is 30%.

Same assay, conditions: filed as agonist

`CCCCCn1nc(C(=O)NC(C)(C)CO)cc1-c1cccs1` was tested. Which Emax did it give?
Its Emax is 70%.
